Read-outs that look alike come from different tables or passages of the source.
Key:
[1] = tested on: beet armyworm (Laphygma exigua Hubner); experiment: Test against beet armyworm (leaf disc spray); format: in vivo; settings: Spodoptera exigua, foliar, 96 h, after 96 h; for mortality at 10 ppm / mortality at 1 ppm: third instar; for mortality at 0.3 ppm / mortality at 0.6 ppm: parallel test
Experimental: (§1) According to the solubility of test compounds, the compounds are dissolved in acetone or dimethyl sulfoxide, and then diluted with 0.1% aqueous solution of Tween 80 to form 50 ml test liquid, the content of acetone or dimethyl sulfoxide in the total solution is not more than 10%.
The cabbage leaves were perforated to get 1 cm diameter leaf discs by the hole puncher. Certain concentrations of test compounds were sprayed on both sides of the discs at the spray volume of 0.5 ml by Airbrush. Eight test insects (third instar) were introduced on each treatment after drying. Each treatment repeated 3 times. The treated discs were placed in a chamber of 24° C., 60%-70% relative humidity, no light. After 96 h, the number of surviving insects was investigated and the mortality was calculated.

[2] = tested on: tomato late blight (Phytophthora infestans); experiment: microbe, parasite or virus in culture; format: cell-based; settings: 240 h, read-out: control efficiency against tomato late blight (rate of fungi inhibition)
[3] = tested on: cucumber anthracnose (Colletotrichum lagenarium, CA); experiment: Fungicidal activity test against cucumber anthracnose in vivo; settings: 400 ppm spray on potted cucumber seedlings; visual assessment after 5 days
[4] = tested on: army worm (Mythimna separata); experiment: Test against army worm (corn leaf dip); format: in vivo; settings: foliar, third instar, after 72 h
Experimental: as §1
The middle part of fresh corn leaves were chosen and cut into 3 cm sects. The sects were dipped into the solution of certain concentration of test compounds for 10 seconds, dried and placed in 9 cm diameter Petri dish. Eight regular health insects (third instar) were introduced on each treatment. Each treatment was repeated for 4 times. The pure water was set as CK. The treated discs were placed in a chamber of 24° C., 60%-70% relative humidity and day light. After 72 h, the number of surviving insects was investigated and the mortality rates were calculated.

[5] = tested on: striped stem borer (Chilo suppressalis (Walker)); experiment: Test against striped stem borer (artificial feed film); format: in vivo
Experimental: as §1
The 6 well culture plates were chosen, 5 mL artificial feed was added into each well. After the feed solidified, 0.2 mL solution of certain concentrations of test compounds was added into per well with a continuous sampler and made the uniform film in the feed surface. Eight regular health insects (second instar) were introduced on each treatment after drying. Each treatment was repeated for 4 times. The pure water was set as CK. The treated discs were placed in a chamber of 24° C., 60%-70% relative humidity and day light. After 72 h, the number of surviving insects was investigated and the mortality was calculated.

[6] = tested on: Diamondback moth (Plutella xylostella); experiment: Test against diamondback moth (cabbage leaf disc dip); format: in vivo; settings: foliar, third instar, after 72 h
Experimental: as §1
The leaves of cabbage grown in greenhouse were chosen, removed the surface waxy layer and perforated to get 2 cm diameter leaf discs by the hole puncher. The discs were dipped in a solution of certain concentrations of test compounds for 10 seconds, dried and placed in 9 cm diameter Petri dish. Eight regular health insects (third instar) were introduced on each treatment. Each treatment was repeated for 4 times. The pure water was set as CK. The treated discs were placed in a chamber of 24° C., 60%-70% relative humidity and day light. After 72 h, the number of surviving insects was investigated and the mortality was calculated.

[7] = tested on: rice leaf folder (Cnaphalocrocis medinalis Guenee); experiment: Field test against rice leaf folder; format: in vivo; settings: 168 h, spray 450 L/ha, after 7 d
Experimental: A certain concentrations of test compounds were sprayed on leaves at the time of hatching peak of rice leaf folder. Spay volume was 450 L/ha. The section area of rice was 32 m^2. Each treatment was repeated for 3 times. After 7d, the number of surviving insects was investigated and the mortality was calculated.

[8] = tested on: fall armyworm (Spodoptera frugiperda); settings: 10 ppm; cited from earlier work
[9] = tested on: armyworm (Mythimna seperata); settings: 50 ppm; cited from earlier work
[10] = 10 ppm, read-out: mortality against beet armyworm
[11] = 0.3 ppm, Table 3, read-out: Mortality (%) against beet armyworm
[12] = parallel test, Table 5, after 72 h

In the case of `CNC(=O)c1cc(Cl)cc(C)c1NC(=O)c1cc(C)nn1-c1ncc(Cl)cc1Cl` [Compound 1], the mortality at 10 ppm ([1]; read-out: mortality against beet armyworm, 10 ppm) is reported as no less than 90%, the inhibition at 25 ppm [2] is reported as greater than 90% and the “protective controlling effect against cucumber anthracnose” value [3] is reported as “more than 90%”.
With `CNC(=O)c1cc(Cl)cc(C)c1NC(=O)c1cc(C(F)(F)F)nn1-c1ncc(Cl)cc1Cl` [Compound 3] the mortality at 1 ppm [1] was no less than 90% and the mortality at 10 ppm [1, 10] was no less than 90%.
For `CNC(=O)c1cc(Cl)cc(C)c1NC(=O)c1cc(Br)nn1-c1ncc(Cl)cc1Cl` [Compound 18], the mortality at 0.3 ppm [1, 11] was 50%, the mortality at 0.3 ppm ([1]; 0.3 ppm, Table 4, read-out: Mortality (%) against beet armyworm) was 62% and the mortality at 0.6 ppm ([1]; 0.6 ppm, Table 4, read-out: Mortality (%) against beet armyworm) was 100%. It also gave a mortality at 1 ppm [1] of no less than 90%, a mortality at 10 ppm [1, 10] of no less than 90% and a mortality at 0.4 ppm [4] of no less than 90%. The mortality at 10 ppm ([5]; second instar, after 72 h) was no less than 90%.
In the case of `CCNC(=O)c1cc(Cl)cc(C)c1NC(=O)c1cc(Br)nn1-c1ncc(Cl)cc1Cl` [Compound 22], the mortality at 1 ppm [1] is reported as no less than 90% and the mortality at 10 ppm [1, 10] is reported as no less than 90%.
`CNC(=O)c1cc(Cl)cc(Cl)c1NC(=O)c1cc(Br)nn1-c1ncc(Cl)cc1Cl` [Compound 19] showed a mortality at 0.3 ppm [1, 11] of 87.5%, a mortality at 1 ppm [1] of no less than 90% and a mortality at 10 ppm [1, 10] of no less than 90%. The mortality at 0.4 ppm [4] was no less than 90%, the mortality at 0.8 ppm [6] was greater than 90% and the mortality at 5 ppm [5, 12] was 90%. The mortality at 10 ppm [5, 12] was 100%, the mortality at 10 ppm ([5]; second instar, after 72 h) was no less than 90% and the mortality at 30 g/ha [7] was 56%. The mortality at 60 g/ha [7] was 63%.
With `CNC(=O)c1cc(Cl)cc(C)c1NC(=O)c1cc(Br)nn1-c1ncccc1Cl` [KC2, chlorantraniliprole, reference compound] the mortality at 5 ppm [5, 12] was 60%, the mortality at 10 ppm [5, 12] was 90% and the mortality at 30 g/ha [7] was 34%. The mortality at 60 g/ha [7] was 52% and the “insecticidal activity against fall armyworm” value [8] was “highly effective”.
`CNC(=O)c1cc(Cl)cc(C)c1NC(=O)c1cc(Br)nn1-c1ncc(Br)cc1Cl` [KC1, reference compound] gave a mortality at 0.3 ppm ([1]; read-out: Mortality (%) against beet armyworm, 0.3 ppm, Table 3) of 0%, a mortality at 0.3 ppm ([1]; read-out: Mortality (%) against beet armyworm, 0.3 ppm, Table 4) of 12.5% and a mortality at 0.6 ppm ([1]; read-out: Mortality (%) against beet armyworm, 0.6 ppm, Table 4) of 75.5%. For the same compound, the “insecticidal activity against armyworm” value [9] was “highly effective”.
With `Cc1cc(Cl)cc(C(N)=O)c1NC(=O)c1cc(Br)nn1-c1ncc(Cl)cc1Cl` [Compound 15] the mortality at 10 ppm [1, 10] was no less than 90%.
